From patent publication US20230151432A1, “KIF18A INHIBITORS FOR TREATMENT OF NEOPLASTIC DISEASES” (AMGEN INC., priority 2020, published 2023)
Entries after “also recorded” stand apart in the source; their conditions may differ.

Legend:
[1] = test system: MDA-MB-157 cells; experiment: pH3 and PCM spot EC50 determination; conditions: pH3 and PCM spot EC50 values
[2] = test system: OVCAR-3 tumors; experiment: OVCAR-3 Tumor Xenograft Efficacy Study (IP); conditions: 100 mg/kg IP once daily for 18 consecutive days
Protocol: Mice were injected with human OVCAR-3 cells (5.0×10^6) subcutaneously in the right flank. Animals with established tumors were randomized into four groups (n=10 per group) with average tumor volume of 130 mm^3. […] Treatment started on day 24 post-tumor implantation and treatment terminal on day 42. Tumor volumes and body weights were recorded twice per week using a digital caliper and analytical lab scale, respectively. […] The percentage of tumor growth inhibition (% TGI) was calculated as % TGI relative to vehicle control: % TGI=100−[(Treated−Initial Volume)/(Control−Initial Volume)×100]. The percentage of tumor regression (% TR) was calculated as % TR compared final tumor volume to the initial tumor volume: % TR=100−[(Final Volume)/(Initial Volume)×100]. Data was graphed using GraphPad Prism 7.05. Statistical analysis was performed on treatment groups for tumor growth and blood counts using repeated measures ANOVA and one-way ANOVA, respectively, followed by Dunnett's multiple comparisons test.

[3] = test system: panel of cell lines (HCC-1806, HCC-1937, BT-549, MDA-MB-157, MCF-7, CAL-51, MDA-MB-453, ZR-75-1, OVCAR-3, OVCAR-5); experiment: 96 h cell growth assay (Example 19); type: cell-based; conditions: Homo sapiens, KIF18A inhibitor-sensitive cells (e.g., OVCAR-3 and BT-549), read-out: Mean Count EC50
Protocol: KIF18A inhibitor cancer cell line sensitivity profiles were determined for KIF18A inhibitor Compounds C9 and C11. Cells of various cancer cell lines were treated with DMSO or increasing concentrations of C9 or C11 for 96 h. The concentration-response profiles of some cancer cell lines (including, e.g., BT-549, OVCAR-3) for C11 were similar. […] Cancer cell lines CAL-51, MDA-MG-453 and OVCAR-5 were insensitive to C9 and C11.
Cell growth assay. A panel of cell lines (HCC-1806, HCC-1937, BT-549, MDA-MB-157, MCF-7, CAL-51, MDA-MB-453, ZR-75-1, OVCAR-3, OVCAR-5) were seeded in 96-well plate at densities optimized for 96 h cell growth assay. The next day, cells were treated with DMSO or one of the following compounds: KIF18A Inhibitor Compounds C9 and C11, or palbociclib, with top concentration of 6 μM (19-point concentration range) using staggered dose method. After 96 h, cells were fixed, stained, imaged, and analyzed as described above. Valid nuclear object counts were determined for each well and Count POC value was computed using the following formula [Count POC=(valid nuclear object count in treated well)+(valid nuclear object count in DMSO treated wells)×100]. Concentration-response curve-fitting was performed by 4-parameter non-linear regression equation using GraphPad Prism 7.05. Mean Count EC50 value was computed for each cell line from two independent experiments run in duplicate. […]

[4] = Terminal plasma pharmacokinetic analysis in tumor-bearing mice; type: in vivo, mouse
Protocol: Data was graphed using GraphPad Prism 7.05.
Tumor volume and body weight assessment performed as described above. After the final dose on day 36, plasma pharmacokinetic analysis was performed as described above. All data analysis was performed as described above.
Animals were dosed IP daily with vehicle alone, C9 (50 or 100 mg/kg), or C12 (25 or 50 mg/kg). […] Tumor volume and body weight assessment performed as described above. After the final dose on day 46, plasma pharmacokinetic analysis was performed as described above except blood was drawn by retro-orbital bleed method.

[5] = test system: human bone marrow mononuclear cells (HBMNC); experiment: BrdU cell cycle analysis and live cell count in normal cells; type: cell-based; conditions: two normal donors; for BrdU incorporation (cell cycle analysis) relative to DMSO/vehicle control: 48 h, C9, C11, palbociclib 1 μM, ispinesib 0.05 μM, paclitaxel; for live cell count relative to vehicle control: 96 hours
Protocol: The effect KIF18A inhibitor treatment has on proliferation of normal somatic cells (e.g., not neoplastic cells) was tested by assaying proliferation of human bone marrow mononuclear cells (HBMNCs), primary human foreskin fibroblast cells (hFSF) and human mammary epithelial cells via a 5-bromo-2′-deoxyuridine (BrdU) incorporation assay in which BrdU, an analog of the nucleoside thymidine, is used to identify proliferating cells (Payton et. al., Molecular Cancer Therapeutics, 17(12):2575-85 (2018)). Cells were analyzed on BD LSRFortessa flow cytometer using BD FACSDiva software (BD Biosciences), and post-acquisition data analysis was performed using FSC-Express software (De Novo). The percentage of BrdU positive gated events on the stacked DNA content histograms were reported.
To further examine the effects of KIF18A inhibitor treatment on HBMNC, two normal donors were assessed using the BrdU coupled cell cycle assay and cell count assay (96 hours) was. […] In particular, the amount of BrdU-stained proliferating cells treated with Ispinesib, paclitaxel, or a CDK 4/6 inhibitor (palbociclib) was far less than the amount of vehicle control-treated BrdU-stained cells. […] KIF18A inhibitor treatment was also analyzed for impact on live cell count. After 96 hours, live cells were counted by Vi-CELL XR Cell Viability Analyzer (Beckman Coulter).
To investigate whether KIF18A inhibitors could circumvent this normal cell toxicity barrier, we examined the effects of Compounds C9 and C11 on a panel of cycling normal somatic cell types. First, we treated human bone marrow mononuclear cells (HBMNC) from two normal donors with DMSO, Compound C9 and C11 at 1 μM, ispinesib at 0.05 μM, paclitaxel at 0.05 μM, or palbociclib at 1 μM for 48 h (cell cycle) or 96 h (cell growth).
BrdU and cell cycle analysis. Human bone marrow mononuclear cells (HBMNCs) from two normal donors (#37612, #37534) were cultured for 8 days in defined media as previously described (Payton et al 2018). HBMNCs were seeded in 24-well plate at 1.2×10^6 cells per well in duplicate plates. Cells were treated with DMSO, Compound C9 (1 μM), Compound C11 (1 μM), ispinesib (0.05 μM), paclitaxel ([…]), or palbociclib (1 μM). Cells were collected at 48 h (cell cycle) and 96 h (cell growth). The first set of plates were pulsed with BrdU for 2 h and processing for BrdU cell cycle analysis as previously described (Payton et al 2018). Cells were analyzed on BD LSRFortessa flow cytometer running BD FACSDiva software and post-acquisition data analysis was performed using FSC-Express software. Data was reported for the percentage of BrdU and subG1 gated populations. The second set of plates were collected, and cells counted using Vi-CELL XR Cell Viability Analyzer (Beckman Coulter).

SMILES | improvement of cell potency relative to a control compound [1] | tumor regression [2] | EC50 [3] | PK profiles across studies ([4]; OVCAR-3, CAL-51, OVCAR-8 studies) | AUC ([4]; nude, mouse, plasma, OVCAR-3 study, 100 mg/kg IP, after the final dose) | BrdU incorporation (cell cycle analysis) relative to DMSO/vehicle control [5] | live cell count relative to vehicle control [5]
CC(C)(C)NS(=O)(=O)c1cccc(NC(=O)c2ccc(S(=O)(=O)NC(C)(C)C)cc2N2CCC3(CC2)CC3)c1 [Compound C9, 4-(N-(tert-butyl)sulfamoyl)-N-(3-(N-(tert-butyl)sulfamoyl)phenyl)-2-(6-azaspiro[2.5]octan-6-yl)benzamide] | > 450 fold | 73% | 0.021 µM | comparable across studies | 130 µM·h | about the same; also recorded: minimal diminution in BrdU incorporation | little to no effect; also recorded: comparable cell counts
CC(C)(CO)Nc1ccc(C(=O)Nc2cccc(S(=O)(=O)C3CCCC3)c2)c(N2CCC3(CC2)CC3)n1 [Compound C11, N-(3-(cyclopentylsulfonyl)phenyl)-6-((1-hydroxy-2-methylpropan-2-yl)amino)-2-(6-azaspiro[2.5]octan-6-yl)nicotinamide] | > 70 fold |  | 0.047 µM |  |  | about the same; also recorded: minimal diminution in BrdU incorporation | little to no effect; also recorded: comparable cell counts
